According to patent US20110142884A1, “Materials and Methods for Making Improved Micelle Compositions” (The Board of Trustees of the University of Illinois, priority 2002, published 2011):
≈ marks a conversion by molar mass, not a printed value. No end group written: not given here.

Columns and labels:
physchem = conditions: for solubility: aqueous with cosolvent or surfactant or cyclodextrin
Procedure: Solubilization potential of both micelle compositions for a model drug was measured by HPLC after separation of the unincorporated drug.
Excess drug was removed by centrifugation and the supernatant was analyzed by HPLC. […] HPLC eluent was measured with adsorption at 254 nm.
According to this example, micelle compositions of the invention were further characterized. Particularly, the physiochemical properties of sterically stabilized micelles prepared with DSPE conjugated to molecular weight 2000, 3000, and 5000 PEG were analyzed. The critical micelle concentration (CMC) of phospholipids was determined at pH 7.4 and 25° C. using a water-insoluble fluorescent probe (1,6-diphenyl-1,3,5-hexatriene). Micellar size was determined by quasi-elastic light scattering.
The solvent was then removed by vacuum rotary evaporation under a stream of argon to form a dry film. This dry film was further dried under vacuum overnight to remove any traces of remaining solvent. The dried film was rehydrated with isotonic 0.01M HEPES buffer, pH 7.4. The solution was then flushed with argon, sealed and equilibrated for 12 h at room temperature. The unsolubilized excess paclitaxel was removed by centrifugation at 13,000 g for 5 min to obtain a clear dispersion.
The solubilization potentials of SSMM and SSM for paclitaxel were determined by RP-HPLC. The clear aqueous dispersion was diluted with methanol. 20 μl of each sample was injected at least three times into a μBondapak C-18 column, 3.9 mm×30 cm (Waters, Milford, Mass.) equipped with a C18 column guard. The column was eluted with acetonitrile/water (60:40) at 1.0 ml/min (Waters 600). Detection was by UV absorption measurement at 227 nm (Waters 490). Peak areas were calculated by interfacing the detector to an electronic integrator (Hewlett Packard). The drug concentration was calculated from standard curves.

[1] = Circular dichroism (CD) spectral analysis of peptide conformation, % helicity; type: physicochemical; conditions: room temperature
Procedure: According to this example, circular dichroism (CD) experiments were performed to determine the conformation changes of VIP in phospholipid micelles, pH and temperature changes, and in aqueous solutions. CD spectra were recorded on a JASCO J-700 spectropolarimeter using a fused quartz cell of 1 cm pathlength. Spectra in 0.15 N saline (pH 6.8) and 5 mM Hepes buffer (pH 7.4) were measured at a peptide concentration of 4 μM and at a lipid concentration of 1 mM. The effects of CaM, pH (6.8 or 7.4) and temperature (25° C. or 37° C.) on VIP conformation were also studied. The conformation of VIP fragments was likewise studied. All measurements were carried out at room temperature (˜25° C.) unless otherwise noted. A bandwidth of 1.0 nm and a step resolution of 0.5 nm were used to collect an average of 9 accumulations/sample at the […] (200-260 nm wavelength). The peptide spectra shown have the background buffer scans, and empty vesicle scans subtracted and were smoothed using the noise reduction function. The temperature during spectral analysis was maintained by using a circulating water bath attached to a jacket surrounding the fused quartz CD cell. The percent helical characterization of VIP was determined by a method of Haghjoo et al., Peptide Research 9 (6):327-331 (1996): % helicity=[−(θ208+4000)/29 000]*100 and are reported in table 1.
According to the example, CD was used to determine the conformation of VIP in saline, Hepes buffer and phospholipid micelles at room temperature and at 37° C. The CD spectra analysis was performed after 13 μg of human VIP incubated with 1 ml PEG-DSPE (1 μmol) micelles for 30 min at room temperature as determined by preliminary studies. A bandwidth of 1.0 nm and a step resolution of 0.5 nm were used to collect an average of 9 accumulations/sample at near UV range (200-260 nm). The temperature was maintained during spectral analysis by a circulating water bath attached to a jacket surrounding the fused quartz CD cell. The evaluation of VIP molecule conformation in SSM by using circular dichroism was successful because the distortion caused by spherical particles was eliminate due to the small size and univesicular structure of the SSM. […] The phospholipid micelles were ideal in our study of VIP conformation since it provided a hydrophobic core similar to the phospholipid bilayer of the SSL. Moreover, both the negative charge, and the hydrophilic layer provided by the PEG mimic the conditions of our SSL and make it possible to infer the VIP conformational results.
According to this example, the method of example 4 was repeated to determine the conformation of VIP in saline and phospholipid micelles plus calmodulin (CaM). CD spectra measurements were performed after 13 μg/ml of VIP was incubated with 1.0 μmol/ml of phospholipid micelles for 30 min followed by 10^−10 M CaM incubated with VIP in phospholipid micelles for 2 h at 4° C. (conjugation paper). A bandwidth of 1.0 nm and a step resolution of 0.5 nm were used to collect the average of 9 accumulations/sample at near UV range (200-260 nm).
According to this example the method of example 4 was repeated to determine the conformation of VIP fragments in saline and phospholipid micelles. CD spectra measurements were performed after incubation of VIP fragments with phospholipid micelles, at a molar concentration equivalent to VIP (i.e. 9 μg/ml for VIP10-28 fragment and 6 μg/ml for VIP1-12 fragment), for 30 min. A bandwidth of 1.0 nm and a step resolution of 0.5 nm were used to collect the average of 9 accumulations/sample at near UV range (200-260 nm). Specifically, CD spectra of human VIP fragment (1-12) and (10-28) in the presence of phospholipid micelles are shown in FIG. 5. […] These effects correlate well with the % helicity of VIP fragments determined in saline and in the presence of phospholipids (Table 1). […]

[2] = test system: second order arterioles of the hamster cheek pouch microcirculation; assay: Hamster cheek pouch microcirculation, arteriolar diameter during suffusion; type: in vivo
Procedure: According to this example, the vasorelaxant effects of VIP in a SSM were determined according to the following method. Specifically, adult male golden Syrian hamsters were purchased from Sasco (Omaha, Nebr.). Adult male hamsters with spontaneous hypertension and their normotensive controls were purchased from the Canadian Hybrid Farms (Halls Harbour, NS, Canada). Hypertensive animals have been identified after cross-breeding of hamsters with hereditary cardiomyopathy and normal golden Syrian hamsters. These albino animals have previously been used in our laboratory (Rubinstein et al., Biochem. Biophys. Res. Commun. 183:1117-1123 (1992); Artwohl et al., FASEB J. 10:A629 (1996)). Animals were anesthetized with pentobarbital sodium (6 mg/100 g body weight, i.p.). A tracheotomy was performed to facilitate spontaneous breathing. A femoral vein was cannulated to inject supplemental anesthesia during the experiment (2-4 mg/100 g body weight/h). Body temperature was maintained constant (37-38° C.) and monitored via heating pad and a feed back controller throughout the experiment.
The bioactivity of the VIP in SSM by diffusing it in situ was determined by visualization of the microcirculation of the hamster cheek pouch. The microcirculation of the cheek pouch was visualized locally by a method previously developed in our laboratory (Suzuki et al., Life Sci. 57:1451-1457 (1995); Suzuki et al., Am. J. Physiol. 271:R393-R397 (1996); and Suzuki et al., Am. J. Physiol. 271:H282-H287 (1996)). Briefly, the left cheek pouch was spread over a small plastic baseplate, and an incision was made in the outer skin to expose the cheek pouch membrane. The connective avascular tissue layer was removed, and a plastic chamber was placed over the baseplate and secured in place by suturing the skin around the upper chamber. This forms a triple-layered complex: the baseplate, the exposed cheek pouch membrane, and the upper chamber. After these initial procedures, the hamster is transferred to a heated microscope stage. The chamber was connected to a reservoir containing warmed bicarbonate buffer (37-38° C.) that allowed continuous suffusion of the cheek pouch. The buffer was bubbled continuously with 95% N2-5% CO2 (pH 7.4). […]
The cheek pouch microcirculation was epi-illuminated with a 100-W mercury light source and viewed through a microscope (Nikon, Tokyo, Japan) at a magnification of ×40. […] The inner-wall diameter of second order arterioles ([…]), which modulated vascular resistance in the cheek pouch, (Raud, Acta Physiol. Scand. (Suppl.) 578:1-58 (1989); Suzuki et al., Life Sci. 57:1451-1457 (1995); Suzuki et al., Am. J. Physiol. 271:R393-R397 (1996)) was measured from the video display of the microscope image using a videomicrometer (VIA 100; Boeckeler Instruments, Tucson, Ariz.). […]

anesthetized rats = assay: Infusion in anesthetized rats, haemodynamics by radioactive microsphere technique; type: in vivo, rat; conditions: 50 ng/kg/min infused for 30 minutes
Procedure: According to this aspect of the invention, the effect of infusion of enthelin-1 (ET-1) alone or in a SSM formulation on mean arterial pressure (MAP), cardiac output(CO), total peripheral resistance (TPR), and regional blood circulation in anesthetized rats was examined using a radioactive microsphere technique. SSM with or without ET-1 were prepared according to the method described in Example 11 using DSPE-PEG in saline. Treatments for individual groups consisted of: (i) control, SSM at 2.7 mg/ml (n=6); (ii) ET-1 infusion at 50 ng/kg/min (n=5), and (iii) ET-1 at 50 ng/kg/min in SSM (n=8). Drugs were infused at 0.1 ml/min for 30 minutes.

[3] = test system: second order arterioles of the hamster cheek pouch microcirculation; conditions: Séjourné et al. 1997; cited from earlier work

Row | Molecule | Conformation from CD spectrum in the presence of phospholipid micelles (SSM) [1] | Conformation from CD spectrum in saline [1] | % Helicity (in the presence of) Phospholipids [1] [%] | % Helicity (in the presence of) Saline [1] [%] | further results
1 | C=C(C)[C@@H]1CC[C@]2(C(=O)O)CC[C@]3(C)[C@H](CC[C@@H]4[C@@]5(C)CC[C@H](O)C(C)(C)[C@@H]5CC[C@]43C)[C@@H]12 [betullinic acid] | – | – | – | – | solubility in 10 mg/ml DSPE-PEG (physchem): up to 200 μg/ml
2 | CC(=O)[C@H]1CC[C@H]2[C@@H]3CCC4=CC(=O)CC[C@]4(C)[C@H]3CC[C@]12C [progesterone] | – | – | – | – | solubility (physchem; thermodynamic from solid, solubility in 10 mg/ml DSPE-PEG): ≤ 198 µg/mL; solubility (physchem; thermodynamic from solid, solubility of progesterone in DSPE-PEG micelles): 198 ± 7 µg/mL (≈ 630 µM); solubility (physchem; thermodynamic from solid, solubility of progesterone in bile salt micelles): 21 µg/mL
3 | secretin | appreciable α-helix conformation | unordered | – | – | increase in arteriolar diameter from baseline ([2]; suffusion of 5 nmol for 7 min): 10.3±0.6%
4 | calmodulin [CaM] | – | – | 0 | 0 | –
5 | VIP1-12: VIP fragment 1-12 (HSDAVFTDNYTR; Vasoactive intestinal peptide; UniProt P01282 125-136, looked up, fragment) | primarily random coil structure | primarily random coil structure | 0.05 | 0 | –
6 | enthelin-1 (CSCSSLMDKECVYFCHLDIIW; ends and bridges not checked; cysteine pairing not given here; UniProt P05305 53-73, looked up) [ET-1] | – | – | – | – | Renal vascular resistance (anesthetized rats): 76%; increase in TPR (anesthetized rats): 102%; vascular resistance in brain (anesthetized rats): 62%
7 | C=C(C)[C@@H]1CC[C@]2(C(=O)O)CC[C@]3(C)[C@H](CC[C@@H]4[C@@]5(C)CC[C@H](O)C(C)(C)[C@@H]5CC[C@]43C)[C@@H]12 [betulinic acid] | – | – | – | – | solubility (physchem; solubility in either SSM or SSC): 250 µg/mL (≈ 547 µM)
8 | NC(=O)CC[C@@H]1NC(=O)[C@H](Cc2ccccc2)NC(=O)[C@H](Cc2ccc(O)cc2)NC(=O)[C@@H](N)CSSC[C@@H](C(=O)N2CCC[C@H]2C(=O)N[C@@H](CCCN=C(N)N)C(=O)NCC(N)=O)NC(=O)[C@H](CC(N)=O)NC1=O [Vasopressin] | primarily random coil conformation | primarily random coil conformation | 16 | 8 | –
9 | VIP10-28: VIP fragment 10-28, a selective VIP receptor antagonist (YTRLRKQMAVKKYLNSILN; ends and bridges not checked; UniProt P01282 134-152, looked up, fragment) | predominantly α-helix structure | primarily random coil conformation | 18 | 3 | effect on secretin- and secretin in SSM-induced vasodilation ([2]; VIP10-28 (50 nmol) suffused 30 min before and during secretin (5 nmol)): abrogated; effects on arteriolar diameter ([2]; suffusion of VIP10-28 alone (50 nmol)): no significant effects; effect on VIP in SSL response [3]: attenuated; effect on native VIP response [3]: completely abolished
